Data from patent US12187773B2, “Modified GIP peptide analogues” (Antag Therapeutics ApS, priority 2018, dated 2025).
Read-outs that look alike come from different tables or passages of the source. *1 amine or outer side, *2 acyl side, *3 side chain or, on linkers, in order; H or OH if unused. Where a SMILES comes first, the peptide text is derived from it. Side-chain parts run from the residue outwards. The star is where a group is joined. C16 diacid = O=C(O)CCCCCCCCCCCCCCC(=O)*; γGlu = O=C(O)[C@H](CCC(=O)[*:2])N[*:1]; AEEA = NCCOCCOCC(=O)O

Assays:
human GIP receptor [1] = target: T1, human GIP receptor (Homo sapiens, UniProt P48546); assay: cAMP antagonism (CisBio cAMP Dynamic 2 HTRF assay); format: cell-based; parameters: pCMV-Script vector
T1 sequence (P48546 22-466): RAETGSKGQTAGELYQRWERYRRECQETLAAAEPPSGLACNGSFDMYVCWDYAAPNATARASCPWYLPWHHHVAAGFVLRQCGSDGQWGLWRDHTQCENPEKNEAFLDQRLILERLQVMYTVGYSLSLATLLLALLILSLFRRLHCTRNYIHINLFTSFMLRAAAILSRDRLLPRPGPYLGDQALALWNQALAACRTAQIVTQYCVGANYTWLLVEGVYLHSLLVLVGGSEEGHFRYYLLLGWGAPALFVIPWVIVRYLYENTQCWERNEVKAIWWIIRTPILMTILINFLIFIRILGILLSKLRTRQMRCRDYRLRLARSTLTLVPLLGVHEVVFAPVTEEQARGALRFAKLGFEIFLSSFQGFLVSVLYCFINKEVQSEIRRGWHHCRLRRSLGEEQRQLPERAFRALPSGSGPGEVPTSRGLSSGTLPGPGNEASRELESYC
Summary of the method: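 Four-parameter fits of cAMP dose-response gave pIC50. cAMP fall was quantified by HTRF competition, ratio 665/620 nm after 60 min at room temperature, against a cAMP standard curve.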

human GIP receptor [2] = target: T1, human GIP receptor; assay: cAMP accumulation, agonism (DiscoveRx HitHunter cAMP XS assay); format: cell-based; parameters: host or cells: COS-7 (transient, calcium phosphate; pCMV-Script vector)
Summary of the method: (§1)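 cAMP accumulation measured by HitHunter cAMP XS in COS-7 cells transiently expressing human GIP receptor, after 30 min in HBS with 1 mM IBMX at 37 °C. Antagonists preincubated 10 min before GIP giving 50-80% of maximum, then 20 min more; agonist mode used 30 min ligand exposure.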

glucagon receptor (GcgR) = target: T2, glucagon receptor (GcgR) (Homo sapiens, UniProt P47871); assay: cAMP assay - selectivity, antagonism at glucagon receptor; format: cell-based; conditions: Table 3A; COS-7 cells; agonist glucagon at 50-80% of maximal cAMP
T2 construct: expressed in transfected cells; host or cells: COS-7 (transient)
T2 sequence (P47871 26-477, species assumed): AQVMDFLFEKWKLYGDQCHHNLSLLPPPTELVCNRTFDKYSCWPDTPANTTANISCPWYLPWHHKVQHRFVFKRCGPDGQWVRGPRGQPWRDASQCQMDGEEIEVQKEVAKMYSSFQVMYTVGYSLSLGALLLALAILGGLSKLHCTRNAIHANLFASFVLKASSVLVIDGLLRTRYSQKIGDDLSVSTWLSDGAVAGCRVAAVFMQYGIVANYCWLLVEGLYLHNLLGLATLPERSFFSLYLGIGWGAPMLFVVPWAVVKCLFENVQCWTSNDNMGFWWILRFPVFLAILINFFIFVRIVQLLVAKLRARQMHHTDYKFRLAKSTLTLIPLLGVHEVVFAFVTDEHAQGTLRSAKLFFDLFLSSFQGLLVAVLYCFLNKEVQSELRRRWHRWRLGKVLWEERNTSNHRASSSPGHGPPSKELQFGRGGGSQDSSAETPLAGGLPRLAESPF
Procedure: (§2) Transient transfected COS-7 cells expressing the either of the GLP1 receptor (GLP1R), GLP2 receptor (GLP2R), glucagon receptor (GcgR) or secretin receptor (SCTR) were seeded in white 96-well plates with a density of 3.5*10^4/well. The day after, the cells were washed twice with Hepes buffered saline (HBS) buffer and incubated with HBS and 1 mM 3-isobutyl-1-methylxanthine (IBMX) for 30 min at 37° C. To test for agonistic properties, ligands were added and incubated for 30 min at 37° C. In order to test for antagonistic properties, the cells were preincubated with the antagonists for 10 min prior to the addition the natural agonist for the expressed receptor (GLP1 for GLP1R expressing cells, GLP2 for GLP2R expressing cells, glucagon for the GcgR and secretin for the SCTR) and subsequent incubated for 20 additional min. […] The HitHunter™ cAMP XS assay (DiscoveRx) was carried out according to the manufacturer's instructions.

human GIP receptor [3] = target: T1, human GIP receptor; assay: cAMP accumulation, antagonism (DiscoveRx HitHunter cAMP XS assay); format: cell-based; parameters: host or cells: COS-7 (transient, calcium phosphate; pCMV-Script vector)
Summary of the method: as §1

secretin receptor (SCTR) = target: T3, secretin receptor (SCTR) (Homo sapiens, UniProt P47872); assay: cAMP assay - selectivity, antagonism at secretin receptor; format: cell-based; conditions: Table 3B; COS-7 cells; agonist secretin
T3 construct: expressed in transfected cells; host or cells: COS-7 (transient)
T3 sequence (P47872 23-440, species assumed): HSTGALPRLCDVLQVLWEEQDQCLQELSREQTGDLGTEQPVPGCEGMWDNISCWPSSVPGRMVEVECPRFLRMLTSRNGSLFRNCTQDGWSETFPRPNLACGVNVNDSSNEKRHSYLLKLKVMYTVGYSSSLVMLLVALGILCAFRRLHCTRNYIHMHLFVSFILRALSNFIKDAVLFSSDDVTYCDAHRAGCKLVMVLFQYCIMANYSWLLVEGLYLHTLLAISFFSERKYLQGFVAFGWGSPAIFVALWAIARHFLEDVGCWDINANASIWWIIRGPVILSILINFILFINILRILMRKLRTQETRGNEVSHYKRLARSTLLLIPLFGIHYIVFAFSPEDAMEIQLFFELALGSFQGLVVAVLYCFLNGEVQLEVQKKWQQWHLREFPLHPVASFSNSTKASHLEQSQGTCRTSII
Procedure: as §2

GLP2 receptor (GLP2R) = target: T4, GLP2 receptor (GLP2R) (Homo sapiens, UniProt O95838); assay: cAMP assay - selectivity, antagonism at GLP2 receptor; format: cell-based; conditions: Table 3B; COS-7 cells; agonist GLP2
T4 construct: expressed in transfected cells; host or cells: COS-7 (transient)
T4 sequence (O95838 1-553): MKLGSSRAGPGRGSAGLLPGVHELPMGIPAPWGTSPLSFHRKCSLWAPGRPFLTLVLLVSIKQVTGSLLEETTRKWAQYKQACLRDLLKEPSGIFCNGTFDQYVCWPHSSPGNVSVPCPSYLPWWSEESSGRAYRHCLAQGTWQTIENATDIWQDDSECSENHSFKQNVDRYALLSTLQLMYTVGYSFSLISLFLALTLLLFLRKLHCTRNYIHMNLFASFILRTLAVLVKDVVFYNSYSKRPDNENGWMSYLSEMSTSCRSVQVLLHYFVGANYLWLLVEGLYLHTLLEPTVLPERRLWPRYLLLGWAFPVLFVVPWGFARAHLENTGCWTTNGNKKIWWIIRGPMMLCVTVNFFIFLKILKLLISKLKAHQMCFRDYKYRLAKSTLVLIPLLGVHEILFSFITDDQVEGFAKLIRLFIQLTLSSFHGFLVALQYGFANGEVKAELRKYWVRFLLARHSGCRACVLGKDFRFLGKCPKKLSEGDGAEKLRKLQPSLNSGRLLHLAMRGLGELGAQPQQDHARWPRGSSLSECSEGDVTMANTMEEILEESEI
Procedure: as §2

GLP1 receptor (GLP1R) = target: T5, GLP1 receptor (GLP1R) (Homo sapiens, UniProt P43220); assay: cAMP assay - selectivity, antagonism at GLP1 receptor; format: cell-based; conditions: Table 3A; for GLP-1R, Antagonism, index: selectivity index versus GIPR
T5 construct: expressed in transfected cells; host or cells: COS-7 (transient)
T5 sequence (P43220 24-463, species assumed): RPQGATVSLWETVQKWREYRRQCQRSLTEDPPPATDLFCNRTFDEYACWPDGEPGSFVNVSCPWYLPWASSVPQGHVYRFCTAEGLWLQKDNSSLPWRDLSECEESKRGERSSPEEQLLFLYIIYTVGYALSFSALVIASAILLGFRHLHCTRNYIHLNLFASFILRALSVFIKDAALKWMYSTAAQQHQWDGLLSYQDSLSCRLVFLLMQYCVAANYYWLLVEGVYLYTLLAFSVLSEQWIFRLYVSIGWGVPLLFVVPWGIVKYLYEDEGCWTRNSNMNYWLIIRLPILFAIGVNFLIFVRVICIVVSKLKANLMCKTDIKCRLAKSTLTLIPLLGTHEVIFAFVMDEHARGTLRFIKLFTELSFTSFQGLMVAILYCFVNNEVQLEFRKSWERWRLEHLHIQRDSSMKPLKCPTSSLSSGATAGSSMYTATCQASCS
Procedure: as §2

human GIP receptor [4] = target: T1, human GIP receptor; assay: cAMP agonism (CisBio cAMP Dynamic 2 HTRF assay); format: cell-based; conditions: for Emax: HEK293, read-out: cAMP agonism, % Efficacy, Table 1C, HEK-293 cells
Procedure: To test for agonistic properties at the GIP receptor, compounds were diluted and added to cells as described above and incubated for 30 min at 37° C. The resulting increase in intracellular cAMP was determined using the CisBio cAMP Dynamic 2 HTRF Assay Kit as described above.

[5] = Elimination half-life (T1/2) estimated in Göttingen minipigs; format: in vivo
Procedure: 2-3 Göttingen minipigs were subcutaneously administered one of the GIP analogues of the present invention (1-10 nmol/kg, total volume 2-6 mL) and blood samples were collected before and up to 432 hours post subcutaneous administration.) from a central venous catheter. The catheter was flushed with saline and heparin between samples. Blood was collected into cold EDTA tubes, centrifuged and plasma was kept at −20° C. pending analyses.
Concentrations of the acylated GIP(3-30)NH2 or GIP(5-30)NH2 analogues in blood samples from Göttingen minipigs were analyzed by RIA. Analogues' immunoreactivity was determined using antiserum Ab95234, Ab95235, Ab95236, a polyclonal in-house antibody raised in rabbits specific for either the mid region of GIP(1-30)NH2 or amidated C-terminus of GIP(3-30)NH2.
In addition to the hormone analysis, blood concentrations of AT374, 380, 382-385, 392-393 were determined by LC/MS performed by Red Glead Discovery AB, Lund, Sweden. The plasma samples were precipitated by addition of 3 parts ethanol followed by thorough mixing. After centrifugation and dilution of the supernatant, the samples were analyzed by LC-MS/MS and compared with a 9-point calibration curve. The calibration curves were prepared in naïve plasma matrix from Göttingen minipigs.

[6] = GIPR, Antagonism, nM, Table 3C, CisBio assay
[7] = Table 1C, CisBio, HEK-293 cells
[8] = cAMP antagonism, nM (IC50), Table 1C, CisBio, HEK-293 cells, agonist GIP1-42 at EC50
[9] = cAMP antagonism, nM (IC50), Table 1B, DiscoveRx, transiently transfected COS-7 cells
[10] = Table 3A/3B, DiscoveRx, COS-7 cells

Row | Compound | IC50 (human GIP receptor [1]; [6]) | cAMP antagonism, % inhib (human GIP receptor [1]; [7]) | GIPR, Antagonism, % inhib (human GIP receptor [1]; Table 3C, CisBio assay) | IC50 (human GIP receptor [1]; [8]) | Glucagon R, Antagonism, nM (glucagon receptor (GcgR)) | IC50 (human GIP receptor [3]; [9]) | Secretin R, Antagonism (secretin receptor (SCTR)) | GLP-2R, Antagonism (GLP2 receptor (GLP2R)) | GLP-1R, Antagonism, %inhib (GLP1 receptor (GLP1R); COS-7 cells) | GLP-1R, Antagonism, index (GLP1 receptor (GLP1R)) | Emax (human GIP receptor [4]) | GIPR, Antagonism, % inhib (human GIP receptor [3]; [10]) | also measured
1 | CC[C@H](C)[C@H](NC(=O)[C@H](CO)NC(=O)[C@H](Cc1ccc(O)cc1)NC(=O)[C@H](CC(=O)O)NC(=O)[C@H](CO)NC(=O)[C@@H](NC(=O)[C@H](Cc1ccccc1)NC(=O)[C@@H](NC(=O)CNC(=O)[C@@H](N)CO)[C@@H](C)O)[C@@H](C)CC)C(=O)N[C@@H](C)C(=O)N[C@@H](CCSC)C(=O)N[C@@H](CC(=O)O)C(=O)N[C@@H](CCCNC(=N)N)C(=O)N[C@H](C(=O)N[C@@H](CCCCNC(=O)COCCOCCNC(=O)COCCOCCNC(=O)CC[C@H](NC(=O)CCCCCCCCCCCCCCC(=O)O)C(=O)O)C(=O)N[C@@H](CCC(N)=O)C(=O)N[C@@H](CCC(N)=O)C(=O)N[C@@H](CC(=O)O)C(=O)N[C@@H](Cc1ccccc1)C(=O)N[C@H](C(=O)N[C@@H](CC(N)=O)C(=O)N[C@@H](Cc1c[nH]c2ccccc12)C(=O)N[C@@H](CC(C)C)C(=O)N[C@@H](CC(C)C)C(=O)N[C@@H](C)C(=O)N[C@@H](CCC(N)=O)C(=O)N[C@@H](CCCNC(=N)N)C(=O)O)C(C)C)[C@@H](C)CC [AT277] (H-SGTFISDYSIAMDRIK([AEEA-AEEA-γGlu-C16 diacid])QQDFVNWLLAQR-OH; N-terminus assumed) | 31.6 nM | 84% | 84% | 31.6 nM | No antagonism | 16 nM | No antagonism | No antagonism | 68% | 561 | 8% | – | Emax (human GIP receptor [2]; COS-7, read-out: cAMP agonism, Emax): 9%
2 | CC[C@H](C)[C@H](NC(=O)[C@H](CO)NC(=O)[C@H](Cc1ccc(O)cc1)NC(=O)[C@H](CC(=O)O)NC(=O)[C@H](CO)NC(=O)[C@@H](NC(=O)[C@@H](N)Cc1ccccc1)[C@@H](C)CC)C(=O)N[C@@H](C)C(=O)N[C@@H](CCSC)C(=O)N[C@@H](CC(=O)O)C(=O)N[C@@H](CCCCN)C(=O)N[C@H](C(=O)N[C@@H](CCCCNC(=O)CCCCCCCCCCCCCCC(=O)O)C(=O)N[C@@H](CCC(N)=O)C(=O)N[C@@H](CCC(N)=O)C(=O)N[C@@H](CC(=O)O)C(=O)N[C@@H](Cc1ccccc1)C(=O)N[C@H](C(=O)N[C@@H](CC(N)=O)C(=O)N[C@@H](Cc1c[nH]c2ccccc12)C(=O)N[C@@H](CC(C)C)C(=O)N[C@@H](CC(C)C)C(=O)N[C@@H](C)C(=O)N[C@@H](CCC(N)=O)C(=O)N[C@@H](CCCCN)C(N)=O)C(C)C)[C@@H](C)CC [AT353] (H-FISDYSIAMDKIK(C16 diacid)QQDFVNWLLAQK-NH2; N-terminus assumed) | 25.1 nM | 90% | 90% | 25.1 nM | No antagonism | – | No antagonism | No antagonism | 43% | 44 | 0% | 100.0% | IC50 (human GIP receptor [3]; GIPR, Antagonism, nM, Table 3A/3B, DiscoveRx, COS-7 cells): 9 nM; IC50 (human GIP receptor [3]; IC50-value (GIPR antagonism), Examples 1 and 2, values of Tables 1B and 2): 9 nM; cAMP antagonism, % inhib (human GIP receptor [3]; Table 2, truncated GIP antagonists): 100.0%; IC50 (human GIP receptor [3]; cAMP antagonism, nM (IC50), Table 2, truncated GIP antagonists): 9 nM
3 | CC[C@H](C)[C@H](NC(=O)[C@H](CO)NC(=O)[C@H](Cc1ccc(O)cc1)NC(=O)[C@H](CC(=O)O)NC(=O)[C@H](CO)NC(=O)[C@@H](NC(=O)[C@H](Cc1ccccc1)NC(=O)[C@@H](NC(=O)CNC(=O)[C@@H](N)CO)[C@@H](C)O)[C@@H](C)CC)C(=O)N[C@@H](C)C(=O)N[C@@H](CCSC)C(=O)N[C@@H](CC(=O)O)C(=O)N[C@@H](CCCNC(=N)N)C(=O)N[C@H](C(=O)N[C@@H](CCCCNC(=O)CCCCCCCCCCCCCCC(=O)O)C(=O)N[C@@H](CCC(N)=O)C(=O)N[C@@H](CCC(N)=O)C(=O)N[C@@H](CC(=O)O)C(=O)N[C@@H](Cc1ccccc1)C(=O)N[C@H](C(=O)N[C@@H](CC(N)=O)C(=O)N[C@@H](Cc1c[nH]c2ccccc12)C(=O)N[C@@H](CC(C)C)C(=O)N[C@@H](CC(C)C)C(=O)N[C@@H](C)C(=O)N[C@@H](CCC(N)=O)C(=O)N[C@@H](CCCNC(=N)N)C(N)=O)C(C)C)[C@@H](C)CC [AT392] (H-SGTFISDYSIAMDRIK(C16 diacid)QQDFVNWLLAQR-NH2; N-terminus assumed) | 68.1 nM | 96% | 96% | 68.1 nM | – | 1 nM | – | – | – | – | – | 93.0% | cAMP agonism, Emax (human GIP receptor [2]; Table 1B, DiscoveRx, COS-7 cells): No Agonism; cAMP antagonism, % inhib (human GIP receptor [3]; Table 1B, DiscoveRx, COS-7 cells, % inhibition of Emax): 93%; half-life ([5]; Göttingen, minipig, plasma, subcutaneous, Example 1, read-out: T1/2 (converted)): 6 h; half-life ([5]; sc, Table 1B, species not given, unit h, LC/MS in Göttingen minipig plasma for these IDs, subcutaneous 1-10 nmol/kg, read-out: T½ (converted)): 6 h; GLP-1R, Antagonism, nM (GLP1 receptor (GLP1R); COS-7 cells, agonist GLP1 at 50-80% of maximal cAMP): No antagonism; cAMP agonism, % Efficacy (human GIP receptor [4]; Table 1C, HEK-293 cells): 0%
